# According to ChEMBL document CHEMBL1201862, “PubChem BioAssay data set” (2004):
# Activity calls are given as the source filed them.
# Key:
# [1] = MDA-MB-231 cell growth inhibition, dose response, cytotoxicity control for RAD54 inhibitor project, CellTiter-Glo luminescence, cherry-pick (AID 651692); type: functional, cell-based
# [2] = molecular target: T1, DNA repair protein RAD52 homolog (Homo sapiens, UniProt P43351); type: functional, biochemical
# T1 sequence (P43351 whole entry): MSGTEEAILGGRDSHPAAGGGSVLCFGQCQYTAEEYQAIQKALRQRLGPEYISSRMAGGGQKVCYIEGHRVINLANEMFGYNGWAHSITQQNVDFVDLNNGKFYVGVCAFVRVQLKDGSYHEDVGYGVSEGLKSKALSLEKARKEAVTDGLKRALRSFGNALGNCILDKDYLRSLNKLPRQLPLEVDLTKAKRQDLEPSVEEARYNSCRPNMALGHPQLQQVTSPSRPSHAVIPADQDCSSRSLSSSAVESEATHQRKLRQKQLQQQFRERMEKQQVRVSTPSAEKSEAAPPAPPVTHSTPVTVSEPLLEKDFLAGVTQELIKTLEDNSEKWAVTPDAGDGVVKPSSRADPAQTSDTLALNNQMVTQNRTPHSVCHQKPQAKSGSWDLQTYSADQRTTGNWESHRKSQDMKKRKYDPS
# [3] = molecular target: T2, DNA repair and recombination protein RAD54-like (Homo sapiens, UniProt Q92698); assay: inhibitors of human RAD54 branch migration, confirmation, biochemical, fluorescence, cherry-picked samples, dose series (AID 651657); type: functional
# T2 sequence (Q92698 whole entry): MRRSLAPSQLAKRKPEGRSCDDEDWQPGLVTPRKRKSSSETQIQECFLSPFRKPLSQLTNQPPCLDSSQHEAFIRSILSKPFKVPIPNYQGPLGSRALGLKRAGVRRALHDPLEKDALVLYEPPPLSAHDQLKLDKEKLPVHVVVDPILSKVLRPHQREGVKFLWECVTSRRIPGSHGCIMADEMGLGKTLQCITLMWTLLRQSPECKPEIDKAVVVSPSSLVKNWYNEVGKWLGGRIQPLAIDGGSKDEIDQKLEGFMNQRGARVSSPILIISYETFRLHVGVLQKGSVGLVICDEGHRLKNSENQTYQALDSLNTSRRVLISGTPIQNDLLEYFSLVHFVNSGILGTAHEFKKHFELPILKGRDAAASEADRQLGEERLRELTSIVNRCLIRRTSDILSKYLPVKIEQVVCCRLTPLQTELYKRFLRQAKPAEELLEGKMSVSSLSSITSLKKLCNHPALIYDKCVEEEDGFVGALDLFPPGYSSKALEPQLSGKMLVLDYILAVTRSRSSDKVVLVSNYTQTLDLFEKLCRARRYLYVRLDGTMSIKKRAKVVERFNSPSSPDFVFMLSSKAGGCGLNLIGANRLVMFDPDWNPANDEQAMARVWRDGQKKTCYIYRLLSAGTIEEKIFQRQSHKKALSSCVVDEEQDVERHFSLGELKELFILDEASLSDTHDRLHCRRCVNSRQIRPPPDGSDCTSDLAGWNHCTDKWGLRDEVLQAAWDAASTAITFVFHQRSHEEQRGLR
# [4] = molecular target: Luciferin 4-monooxygenase (Photinus pyralis, UniProt P08659); assay: firefly luciferase enzyme inhibitors, dose response, biochemical, luminescence (AID 1891)
# Chain of Luciferin 4-monooxygenase (P08659 whole entry): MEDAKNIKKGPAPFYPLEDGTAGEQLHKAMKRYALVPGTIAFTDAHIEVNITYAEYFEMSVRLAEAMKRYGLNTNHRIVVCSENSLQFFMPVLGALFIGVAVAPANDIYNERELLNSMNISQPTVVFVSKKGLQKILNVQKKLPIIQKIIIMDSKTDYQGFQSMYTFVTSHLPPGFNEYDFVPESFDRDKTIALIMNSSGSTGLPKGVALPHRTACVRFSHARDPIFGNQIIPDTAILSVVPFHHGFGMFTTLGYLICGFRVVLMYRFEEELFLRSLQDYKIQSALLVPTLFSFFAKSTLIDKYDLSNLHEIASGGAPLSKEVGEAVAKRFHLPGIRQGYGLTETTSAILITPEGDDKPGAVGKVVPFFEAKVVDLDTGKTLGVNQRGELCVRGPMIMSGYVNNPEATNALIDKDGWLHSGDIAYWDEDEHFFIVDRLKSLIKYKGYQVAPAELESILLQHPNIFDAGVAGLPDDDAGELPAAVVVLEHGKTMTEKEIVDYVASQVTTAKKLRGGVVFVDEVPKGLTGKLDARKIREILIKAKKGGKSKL
# [5] = Luminescence Cell-Based Dose Confirmation HTS to Identify Inhibitors of Platelet Dense Granule Release. [Related pubchem assays: 1663 (Primary HTS), 1678 (Summary of Project)]; type: functional
# [6] = molecular target: Photoreceptor-specific nuclear receptor (Homo sapiens, UniProt Q9Y5X4); type: functional, cell-based;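 note: CHO-S cells with Gal4-NCOR and VP16-NR2E3 two-hybrid luciferase reporter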
# Chain of Photoreceptor-specific nuclear receptor (Q9Y5X4 whole entry, the tested form may be a part): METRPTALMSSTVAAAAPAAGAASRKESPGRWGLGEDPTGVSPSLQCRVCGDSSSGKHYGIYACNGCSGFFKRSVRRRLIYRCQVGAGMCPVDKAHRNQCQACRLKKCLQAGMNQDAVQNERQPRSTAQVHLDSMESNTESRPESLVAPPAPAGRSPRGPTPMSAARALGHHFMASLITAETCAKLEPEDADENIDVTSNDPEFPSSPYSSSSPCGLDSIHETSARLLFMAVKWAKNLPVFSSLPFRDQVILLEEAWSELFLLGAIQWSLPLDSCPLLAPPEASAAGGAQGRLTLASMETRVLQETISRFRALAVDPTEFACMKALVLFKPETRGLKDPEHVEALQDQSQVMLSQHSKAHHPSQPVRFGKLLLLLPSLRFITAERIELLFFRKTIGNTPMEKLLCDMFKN
# BJ [7] = assay: cells; type: functional, cell-based; settings: Homo sapiens
# [8] = molecular target: T3, High affinity choline transporter 1 (Homo sapiens, UniProt Q9GZV3); assay: CHT activators, dose response, cell-based, 10-point CRC, membrane potential dye (AID 602376); type: functional
# T3 sequence (Q9GZV3 whole entry): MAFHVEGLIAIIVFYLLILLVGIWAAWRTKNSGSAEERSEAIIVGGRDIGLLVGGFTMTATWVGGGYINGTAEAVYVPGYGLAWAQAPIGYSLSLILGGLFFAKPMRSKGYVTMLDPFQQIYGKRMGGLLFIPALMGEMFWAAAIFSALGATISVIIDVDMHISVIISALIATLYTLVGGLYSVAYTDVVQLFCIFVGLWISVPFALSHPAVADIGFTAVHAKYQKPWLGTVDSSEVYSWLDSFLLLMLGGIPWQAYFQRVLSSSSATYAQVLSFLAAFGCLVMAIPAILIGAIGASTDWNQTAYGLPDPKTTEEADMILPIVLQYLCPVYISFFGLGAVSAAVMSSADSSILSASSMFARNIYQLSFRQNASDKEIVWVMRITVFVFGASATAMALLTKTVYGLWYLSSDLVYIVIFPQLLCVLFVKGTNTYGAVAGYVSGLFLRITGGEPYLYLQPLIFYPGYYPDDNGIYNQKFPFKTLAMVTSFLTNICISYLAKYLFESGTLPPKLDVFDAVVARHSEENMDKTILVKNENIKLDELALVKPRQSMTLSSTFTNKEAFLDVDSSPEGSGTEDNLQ
# [9] = cytotoxicity toward DRD oncogenic fibroblasts, dose response, cell-based, non-viral oncogenic, luminescence (AID 1934); type: functional; settings: Homo sapiens
# BJ [10] = assay: cytotoxicity toward BJ-TERT-LT-ST fibroblasts, dose response, cell-based, RAS-independent, luminescence (AID 1935); type: functional; settings: Homo sapiens;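 note: BJ fibroblasts immortalized with TERT plus LT and ST oncogenes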
# BJ [11] = assay: cytotoxicity toward Ras-transformed BJeLR fibroblasts, dose response, cell-based, alamar blue fluorescence, cherrypicked samples (AID 2631); type: functional; settings: Homo sapiens;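 note: confirmatory dose-response assay in RAS-dependent BJ fibroblasts engineered with TERT, LT and ST, with cytotoxicity read by fluorescence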
# [12] = Fluorescence-based cell-based high throughput dose response assay for inhibitors of the interaction of nucleotide-binding oligomerization domain containing 2 (NOD2) and the receptor-interacting serine-threonine kinase 2 (RIPK2).; type: functional; settings: Homo sapiens
# BJ [13] = assay: cytotoxicity toward BJ-TERT fibroblasts, dose response, cell-based, RAS-independent, luminescence (AID 1933); type: functional; settings: Homo sapiens
# [14] = Luminescence Cell-Based Dose Retest to Confirm Inhibitors of Cancer Stem Cells. [Related pubchem assays (depositor defined):AID2717, AID2721]; type: functional, Homo sapiens; settings: Homo sapiens
# Steroidogenic factor 1 = Steroidogenic factor 1 (Homo sapiens, UniProt Q13285); assay: Counterscreen for inverse agonists of the liver receptor homolog-1 (LRH-1; NR5A2): Luminescence-based cell-based high throughput dose response assay to identify inverse agonists of the Steroidogenic Factor 1 Nuclear Receptor (SF1; NR5A1).; type: functional
# Chain of Steroidogenic factor 1 (Q13285 whole entry): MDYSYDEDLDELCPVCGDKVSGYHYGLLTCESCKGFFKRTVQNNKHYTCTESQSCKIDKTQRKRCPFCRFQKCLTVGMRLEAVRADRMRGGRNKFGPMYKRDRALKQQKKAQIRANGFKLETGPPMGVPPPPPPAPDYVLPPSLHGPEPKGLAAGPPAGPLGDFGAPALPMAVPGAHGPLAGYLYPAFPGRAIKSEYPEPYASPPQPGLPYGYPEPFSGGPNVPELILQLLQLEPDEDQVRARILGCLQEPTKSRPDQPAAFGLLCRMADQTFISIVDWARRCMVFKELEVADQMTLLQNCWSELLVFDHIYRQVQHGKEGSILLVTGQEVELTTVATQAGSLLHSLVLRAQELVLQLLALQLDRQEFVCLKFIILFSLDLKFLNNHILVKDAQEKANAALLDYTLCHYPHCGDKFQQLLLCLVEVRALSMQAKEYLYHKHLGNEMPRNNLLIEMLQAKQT
# [15] = Luminescence Cell-Based Dose Response HTS to Identify Activators of Luciferase Translation or Activity in H4 […] Cells. [Related pubchem assays: 1829 (Project Summary), 1814 (Primary HTS)]; type: functional
# [16] = Vero E6 cell cytotoxicity, dose response, cytotoxicity control for non-replicating M. tuberculosis project, secondary assay (AID 492998); type: functional, VeroE6; settings: Vero C1008
# [17] = Luminescence Cell-Based Dose Confirmation HTS to Identify Activators of 5'UTR Stem-Loop Driven Alpha-Synuclein mRNA Translation in H4 Neuroglioblastoma Cells. [Related pubchem assays: 1829 (Project Summary), 1814 (Primary HTS)]; type: functional
# cells = type: functional
# [18] = StAR promoter reporter inhibition counter-screen, dose response, counter-screen for LRH-1 inverse agonist project, cell-based, luminescence, luciferase reporter (AID 651969); type: functional
# [19] = molecular target: Nuclear receptor subfamily 5 group A member 2 (Homo sapiens, UniProt O00482); type: functional, cell-based;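 note: HEK293T cells transfected with LRH-1 and a StAR promoter luciferase reporter; potency for inhibitors that lower LRH-1 driven reporter light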
# Chain of Nuclear receptor subfamily 5 group A member 2 (O00482 whole entry): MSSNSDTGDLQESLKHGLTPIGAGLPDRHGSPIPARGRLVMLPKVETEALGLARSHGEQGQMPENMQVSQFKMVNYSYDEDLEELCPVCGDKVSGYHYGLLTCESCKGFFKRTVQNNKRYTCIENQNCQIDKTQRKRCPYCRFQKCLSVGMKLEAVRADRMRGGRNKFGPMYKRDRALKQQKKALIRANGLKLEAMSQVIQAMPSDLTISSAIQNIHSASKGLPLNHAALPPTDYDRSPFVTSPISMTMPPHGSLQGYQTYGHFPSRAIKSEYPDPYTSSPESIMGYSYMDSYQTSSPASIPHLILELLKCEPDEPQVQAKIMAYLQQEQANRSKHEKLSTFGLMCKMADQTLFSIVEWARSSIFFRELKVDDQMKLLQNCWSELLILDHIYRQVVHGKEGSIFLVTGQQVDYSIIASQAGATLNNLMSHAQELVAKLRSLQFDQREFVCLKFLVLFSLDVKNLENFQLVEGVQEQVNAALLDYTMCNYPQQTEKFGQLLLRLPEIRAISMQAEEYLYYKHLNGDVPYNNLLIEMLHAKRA
# [20] = THP-1 cell cytotoxicity, dose response, cytotoxicity control for non-replicating M. tuberculosis project (AID 489025); type: functional
# H4 = assay: Luminescence Cell-Based Dose Response HTS to Identify Activators of 5'UTR Stem-Loop Driven Prion Protein mRNA Translation in H4 Neuroglioblastoma Cells. [Related pubchem assays: 1829 (Project Summary), 1814 (Primary HTS)]; type: functional; settings: Homo sapiens
# [21] = molecular target: T4, Low molecular weight phosphotyrosine protein phosphatase (Homo sapiens, UniProt P24666); type: functional; settings: read-out: IC50_Mean
# T4 sequence (P24666 whole entry): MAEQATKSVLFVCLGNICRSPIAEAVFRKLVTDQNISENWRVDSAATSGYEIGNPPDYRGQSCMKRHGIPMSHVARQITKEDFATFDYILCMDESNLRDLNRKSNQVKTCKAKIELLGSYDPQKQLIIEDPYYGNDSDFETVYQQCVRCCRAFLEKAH
# [22] = molecular target: T5, Tyrosine-protein phosphatase non-receptor type 22 (Homo sapiens, UniProt Q9Y2R2); assay: LYP phosphatase inhibition for selectivity, dose response, selectivity assay for LMPTP inhibitor project, biochemical, fluorescence, LYP catalytic domain (AID 652006); type: functional; settings: read-out: IC50_Mean
# T5 sequence (Q9Y2R2 whole entry): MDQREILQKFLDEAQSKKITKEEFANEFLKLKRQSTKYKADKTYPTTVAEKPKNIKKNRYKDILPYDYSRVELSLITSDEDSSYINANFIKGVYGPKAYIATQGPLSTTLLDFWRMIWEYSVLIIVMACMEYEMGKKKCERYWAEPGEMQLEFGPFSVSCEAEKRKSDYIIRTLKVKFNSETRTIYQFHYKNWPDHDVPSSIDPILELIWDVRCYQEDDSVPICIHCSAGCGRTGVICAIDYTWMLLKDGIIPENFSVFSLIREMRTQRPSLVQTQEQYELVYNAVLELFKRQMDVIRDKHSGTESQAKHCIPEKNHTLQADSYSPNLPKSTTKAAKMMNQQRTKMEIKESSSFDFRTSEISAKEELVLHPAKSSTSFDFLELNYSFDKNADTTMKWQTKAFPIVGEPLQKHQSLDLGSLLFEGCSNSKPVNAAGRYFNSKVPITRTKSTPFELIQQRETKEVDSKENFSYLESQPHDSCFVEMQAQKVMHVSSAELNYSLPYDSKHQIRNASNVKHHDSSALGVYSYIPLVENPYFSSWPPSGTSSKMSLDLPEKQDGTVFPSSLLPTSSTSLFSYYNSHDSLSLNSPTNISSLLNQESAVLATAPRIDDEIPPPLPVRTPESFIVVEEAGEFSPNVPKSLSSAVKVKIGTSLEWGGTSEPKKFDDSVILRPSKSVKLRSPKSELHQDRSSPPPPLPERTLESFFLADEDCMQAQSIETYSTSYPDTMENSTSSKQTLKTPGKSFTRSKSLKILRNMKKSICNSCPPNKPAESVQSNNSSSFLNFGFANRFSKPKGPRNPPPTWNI
# [23] = molecular target: T4, Low molecular weight phosphotyrosine protein phosphatase; type: functional; settings: read-out: IC50_Mean; remark: listed apart in the source
structure (smiles),measurement,setting,value
Cc1cc2oc3ccc(NCCC4CCCN4C)cc3c(=O)c2cc1C (stereo unspecified),AC50,[1],23.6 µM (active)
same,AC50,[2],8.31 µM (active)
same,AC50,[3],14.7 µM (active)
Cc1cccc(C)c1OCc1cc(C(=O)N2CCC(c3ccncc3)CC2)no1,EC50,[4],> 112 µM (not active)
same,EC50,[5],> 112 µM (not active)
same,IC50,[6],6.23 µM (active)
CCOC(=O)c1ccc(NC(=O)Nc2ccon2)cc1,EC50,BJ [7],20.1 µM (active)
same,EC50,[8],8.42 µM (active)
same,EC50,[9],0.429 µM (active)
same,EC50,BJ [10],0.469 µM (active)
same,EC50,BJ [11],< 0.104 µM (active)
same,IC50,[12],49.7 µM (inactive)
same,EC50,BJ [13],0.401 µM (active)
O=C(Nc1ccc(S(=O)(=O)N2CCOCC2)cc1)c1ccc([N+](=O)[O-])o1,AC50,[14],3.43 µM (active)
same,IC50,Steroidogenic factor 1,0.443 µM (active)
same,EC50,[15],> 120 µM (not active)
same,CC50,[16],3.98 µM (active)
same,EC50,[17],> 120 µM (not active)
same,IC50,cells,6.7 µM (active)
same,IC50,[18],35.9 µM (inactive)
same,IC50,[19],10.8 µM (inactive)
same,CC50,[20],4.04 µM (active)
same,EC50,H4,> 120 µM (not active)
COc1ccccc1CNc1nc(NCc2ccc(NC(C)=O)cc2)c2sccc2n1,IC50,[21],17.7 µM (active)
same,IC50,[22],50.4 µM (inactive)
same,IC50,[23],5.86 µM (active)
